Source: PubChem BioAssay (NCI)
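GI50 is the concentration that inhibits growth by half. Definition used: TGI = concentration required for complete inhibition of growth.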

What was measured:
Assay in all cases: NCI anticancer screen, dose series, 384-well format
MDA-MB-435 melanoma = tested on: MDA-MB-435 melanoma
786-0 renal = tested on: 786-0 renal
SF-295 CNS = tested on: SF-295 CNS
SF-268 CNS = tested on: SF-268 CNS
OVCAR-3 ovarian = tested on: OVCAR-3 ovarian
COLO 205 colon = tested on: COLO 205 colon
DU-145 prostate = tested on: DU-145 prostate
SK-OV-3 ovarian = tested on: SK-OV-3 ovarian
T-47D breast = tested on: T-47D breast
HCT-15 colon = tested on: HCT-15 colon
CCRF-CEM leukemia = tested on: CCRF-CEM leukemia
HT29 colon = tested on: HT29 colon
ACHN renal = tested on: ACHN renal
MDA-MB-231 breast = tested on: MDA-MB-231 breast
TK-10 renal = tested on: TK-10 renal
RPMI-8226 leukemia = tested on: RPMI-8226 leukemia
K-562 leukemia = tested on: K-562 leukemia
NCI/ADR-RES ovarian = tested on: NCI/ADR-RES ovarian
NCI-H226 lung = tested on: NCI-H226 lung
KM12 colon = tested on: KM12 colon
CAKI-1 renal = tested on: CAKI-1 renal
HL-60(TB) leukemia = tested on: HL-60(TB) leukemia
SK-MEL-5 melanoma = tested on: SK-MEL-5 melanoma
A549 NSCLC = tested on: A549 NSCLC
SN12C renal = tested on: SN12C renal
SF-539 CNS = tested on: SF-539 CNS
U251 glioblastoma = tested on: U251 glioblastoma
NCI-H322M lung = tested on: NCI-H322M lung
UACC-257 melanoma = tested on: UACC-257 melanoma
SNB-19 CNS = tested on: SNB-19 CNS
MDA-MB-468 breast = tested on: MDA-MB-468 breast
UACC-62 melanoma = tested on: UACC-62 melanoma
NCI-H522 lung = tested on: NCI-H522 lung
SK-MEL-28 melanoma = tested on: SK-MEL-28 melanoma
EKVX NSCLC = tested on: EKVX NSCLC
HCC-2998 colon = tested on: HCC-2998 colon
NCI-H460 NSCLC = tested on: NCI-H460 NSCLC
RXF 393 renal = tested on: RXF 393 renal
HOP-92 NSCLC = tested on: HOP-92 NSCLC
BT-549 breast = tested on: BT-549 breast
OVCAR-8 ovarian = tested on: OVCAR-8 ovarian
OVCAR-5 ovarian = tested on: OVCAR-5 ovarian
M14 melanoma = tested on: M14 melanoma
SW-620 colon = tested on: SW-620 colon
SNB-75 CNS = tested on: SNB-75 CNS
OVCAR-4 ovarian = tested on: OVCAR-4 ovarian
MOLT-4 leukemia = tested on: MOLT-4 leukemia
UO-31 renal = tested on: UO-31 renal
MALME-3M melanoma = tested on: MALME-3M melanoma
HS 578T breast = tested on: HS 578T breast
LOX IMVI melanoma = tested on: LOX IMVI melanoma
IGROV1 ovarian = tested on: IGROV1 ovarian
MCF7 breast = tested on: MCF7 breast
NCI-H23 lung = tested on: NCI-H23 lung
PC-3 prostate = tested on: PC-3 prostate
SR leukemia = tested on: SR leukemia
A498 renal = tested on: A498 renal
HOP-62 NSCLC = tested on: HOP-62 NSCLC

Compound NCC(=O)Nc1ccc(-n2nc(C(F)(F)F)cc2-c2ccc3c(ccc4ccccc43)c2)cc1 has a GI50 (MDA-MB-435 melanoma) of 1.11 µM, a TGI (MDA-MB-435 melanoma) of 2.33 µM and a GI50 ([…]-0 renal) of 1.02 µM. The TGI (786-0 renal) was 2.2 µM, the GI50 (SF-295 CNS) was 0.766 µM and the TGI (SF-295 CNS) was 2.04 µM. It also gave a GI50 (SF-268 CNS) of 1.05 µM, a TGI (SF-268 CNS) of 2.24 µM and a GI50 (OVCAR-3 ovarian) of 1.57 µM. It also gave a TGI (OVCAR-3 ovarian) of 2.92 µM, a GI50 (COLO 205 colon) of 0.535 µM and a TGI (COLO 205 colon) of 1.8 µM. The GI50 (DU-145 prostate) was 1.31 µM, the TGI (DU-145 prostate) was 2.61 µM and the GI50 (SK-OV-3 ovarian) was 1.57 µM. For the same compound, the TGI (SK-OV-3 ovarian) was 2.92 µM, the GI50 (T-47D breast) was 1.54 µM and the TGI (T-47D breast) was 2.88 µM. For the same compound, the GI50 (HCT-15 colon) was 0.0821 µM, the TGI (HCT-15 colon) was 1.75 µM and the GI50 (CCRF-CEM leukemia) was 0.218 µM. For the same compound, the TGI (CCRF-CEM leukemia) was 1.72 µM, the GI50 (HT29 colon) was 1.09 µM and the TGI (HT29 colon) was 2.29 µM. It also gave a GI50 (ACHN renal) of 1.18 µM, a TGI (ACHN renal) of 2.43 µM and a GI50 (MDA-MB-231 breast) of 0.405 µM. It also gave a TGI (MDA-MB-231 breast) of 2.01 µM, a GI50 (TK-10 renal) of 1.32 µM and a TGI (TK-10 renal) of 2.61 µM. It also gave a GI50 (RPMI-8226 leukemia) of 0.213 µM, a TGI (RPMI-8226 leukemia) of 0.686 µM and a GI50 (K-562 leukemia) of 0.218 µM. For the same compound, the TGI (K-562 leukemia) was 1.52 µM, the GI50 (NCI/ADR-RES ovarian) was 1.07 µM and the TGI (NCI/ADR-RES ovarian) was 2.25 µM. It also gave a GI50 (NCI-H226 lung) of 1.6 µM, a TGI (NCI-H226 lung) of 2.96 µM and a GI50 (KM12 colon) of 1.14 µM. The TGI (KM12 colon) was 2.37 µM, the GI50 (CAKI-1 renal) was 1.18 µM and the TGI (CAKI-1 renal) was 2.43 µM. It also gave a GI50 (HL-60(TB) leukemia) of 0.272 µM, a TGI (HL-60(TB) leukemia) of 1.17 µM and a GI50 (SK-MEL-5 melanoma) of 1.12 µM. For the same compound, the TGI (SK-MEL-5 melanoma) was 2.33 µM, the GI50 (A549 NSCLC) was 1.04 µM and the TGI (A549 NSCLC) was 2.23 µM. The GI50 (SN12C renal) was 1.42 µM, the TGI (SN12C renal) was 2.74 µM and the GI50 (SF-539 CNS) was 1.16 µM. It also gave a TGI (SF-539 CNS) of 2.4 µM, a GI50 (U251 glioblastoma) of 1.19 µM and a TGI (U251 glioblastoma) of 2.46 µM. For the same compound, the GI50 (NCI-H322M lung) was 1.42 µM, the TGI (NCI-H322M lung) was 2.74 µM and the GI50 (UACC-257 melanoma) was 1.25 µM. For the same compound, the TGI (UACC-257 melanoma) was 2.51 µM, the GI50 (SNB-19 CNS) was 1.52 µM and the TGI (SNB-19 CNS) was 2.86 µM. It also gave a GI50 (MDA-MB-468 breast) of 1.53 µM, a TGI (MDA-MB-468 breast) of 2.87 µM and a GI50 (UACC-62 melanoma) of 1.23 µM. It also gave a TGI (UACC-62 melanoma) of 2.48 µM, a GI50 (NCI-H522 lung) of 1.07 µM and a TGI (NCI-H522 lung) of 2.27 µM. It also gave a GI50 (SK-MEL-28 melanoma) of 1.12 µM, a TGI (SK-MEL-28 melanoma) of 2.32 µM and a GI50 (EKVX NSCLC) of 1.77 µM. It also gave a TGI (EKVX NSCLC) of 3.17 µM, a GI50 (HCC-2998 colon) of 1.06 µM and a TGI (HCC-2998 colon) of 2.25 µM. The GI50 (NCI-H460 NSCLC) was 0.296 µM, the TGI (NCI-H460 NSCLC) was 1.44 µM and the GI50 (RXF 393 renal) was 1.27 µM. The TGI (RXF 393 renal) was 2.53 µM, the GI50 (HOP-92 NSCLC) was 1.12 µM and the TGI (HOP-92 NSCLC) was 2.33 µM. It also gave a GI50 (BT-549 breast) of 1.33 µM, a TGI (BT-549 breast) of 2.62 µM and a GI50 (OVCAR-8 ovarian) of 1.13 µM. For the same compound, the TGI (OVCAR-8 ovarian) was 2.36 µM, the GI50 (OVCAR-5 ovarian) was 1.66 µM and the TGI (OVCAR-5 ovarian) was 3.04 µM. For the same compound, the GI50 (M14 melanoma) was 1.27 µM, the TGI (M14 melanoma) was 2.54 µM and the GI50 (SW-620 colon) was 0.965 µM. The TGI (SW-620 colon) was 2.16 µM, the GI50 (SNB-75 CNS) was 1.08 µM and the TGI (SNB-75 CNS) was 2.29 µM. It also gave a GI50 (OVCAR-4 ovarian) of 1.62 µM, a TGI (OVCAR-4 ovarian) of 2.98 µM and a GI50 (MOLT-4 leukemia) of 0.0441 µM. It also gave a TGI (MOLT-4 leukemia) of 0.148 µM, a GI50 (UO-31 renal) of 1.39 µM and a TGI (UO-31 renal) of 2.74 µM. The GI50 (MALME-3M melanoma) was 1.16 µM, the TGI (MALME-3M melanoma) was 2.39 µM and the GI50 (HS 578T breast) was 1.76 µM. The TGI (HS 578T breast) was 3.16 µM, the GI50 (LOX IMVI melanoma) was 0.396 µM and the TGI (LOX IMVI melanoma) was 1.47 µM. It also gave a GI50 (IGROV1 ovarian) of 1.09 µM, a TGI (IGROV1 ovarian) of 2.3 µM and a GI50 (MCF7 breast) of 0.904 µM. The TGI (MCF7 breast) was 2.12 µM, the GI50 (NCI-H23 lung) was 1.76 µM and the TGI (NCI-H23 lung) was 3.15 µM. The GI50 (PC-3 prostate) was 1.19 µM, the TGI (PC-3 prostate) was 2.43 µM and the GI50 (SR leukemia) was 0.0306 µM. It also gave a TGI (SR leukemia) of 0.104 µM, a GI50 (A498 renal) of 1.55 µM and a TGI (A498 renal) of 2.9 µM. It also gave a GI50 (HOP-62 NSCLC) of 1.13 µM and a TGI (HOP-62 NSCLC) of 2.36 µM.
